Laboratory results as given in patent publication US6825018B1, “Sorbitol dehydrogenase, gene encoding the same and use thereof” (priority 1999, dated 2004).

Legend:
Format in all cases: biochemical, Gluconobacter oxydans G624
His-tagged SLDH [1] = target: T1, His-tagged SLDH (Gluconobacter oxydans, UniProt Q9KWR5); test: SLDH activity: coenzyme dependency and active pH range (increase in NAD(P)H, absorbance at 340 nm); settings: for Activity: substrate sorbitol, 25° C., coenzyme varied
Protocol: To a solution containing 0.1 ml of 50 mM NAD^+ (or NADP^+), 0.2 ml of 500 mM buffer, 10 μl of His-tagged SLDH solution (2.1 μg protein) prepared in Example 2(4) and distilled water (0.29 ml) was added to 500 mM sorbitol (0.4 ml) to start the reaction (25° C.), and increase in NADH (or NADPH) was measured by a spectrophotometer (UV-2200; Shimadzu) based on absorbance at 340 nm as an index. For the reaction solutions having pH 10.1 and pH 9.0, glycine/NaOH buffer was used, and for reaction solutions having pH 8.0 and pH 7.0, potassium phosphate buffer was used. The enzyme activity (1 unit) was defined to be an amount to generate 1 μmol of NADH (or NADPH) per minute. The molecular extinction coefficient of NAD(P)H was 6.3 mM^−1 cm^−1. The protein amount was measured with bovine serum albumin (BSA) as a standard by the Lowry method.

His-tagged SLDH [2] = target: T1, His-tagged SLDH; test: SLDH activity: substrate specificity; settings: glycine/NaOH buffer pH 10.1, coenzyme NADP+; for Activity: substrate varied
His-tagged SLDH [3] = target: T1, His-tagged SLDH; test: Confirmation of SLDH activity: reaction of purified His-tagged SLDH with sorbitol, product analysis; settings: 10 mM (1.82 mg/ml) sorbitol, pH 10.1, 5 mM NADP^+, 25° C., 24 hours
Protocol: In the same manner as in the above-mentioned (2) except that the cell-free extract to be applied was by 10 ml, the resin after His-tagged SLDH adsorption was washed 6 times, and His-tagged SLDH was eluted with 50 mM imidazole and 100 mM NaCl-containing 20 mM Tris-HCl (5 ml, pH 8.0), His-tagged SLDH was purified. The obtained His-tagged SLDH was reacted with sorbitol and the resulting product was analyzed. The composition of the reaction solution (2 ml) was 10 mM (1.82 mg/ml) sorbitol, 0.1 M glycine/NaOH buffer (pH 10.1), 5 mM NADP^+ and His-tagged SLDH 0.2 ml (41.4 μg protein) and the reaction was carried out at 25° C. for 24 hours. […] Thus, His-tagged SLDH purified by cobalt type IMAC was confirmed to be sorbitol dehydrogenase that oxidizes sorbitol and generates sorbose.

[4] = pH 7.0, potassium phosphate buffer
[5] = pH 8.0, potassium phosphate buffer

T1 sequence (Q9KWR5 entry or part of it): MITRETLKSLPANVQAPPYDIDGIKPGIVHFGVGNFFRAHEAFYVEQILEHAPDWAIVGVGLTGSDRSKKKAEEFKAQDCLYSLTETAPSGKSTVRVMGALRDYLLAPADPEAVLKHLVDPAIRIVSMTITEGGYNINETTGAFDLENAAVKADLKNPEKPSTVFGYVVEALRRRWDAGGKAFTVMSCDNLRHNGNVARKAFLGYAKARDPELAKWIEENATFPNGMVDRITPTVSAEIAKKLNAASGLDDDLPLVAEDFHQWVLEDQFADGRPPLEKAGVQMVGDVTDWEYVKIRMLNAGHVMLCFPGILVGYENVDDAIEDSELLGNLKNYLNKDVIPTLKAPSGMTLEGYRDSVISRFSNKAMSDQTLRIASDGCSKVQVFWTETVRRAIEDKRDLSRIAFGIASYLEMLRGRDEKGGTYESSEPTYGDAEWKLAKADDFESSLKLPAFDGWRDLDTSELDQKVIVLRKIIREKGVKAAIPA

| Structure (SMILES) | Activity (His-tagged SLDH [2]) | Use as substrate by SLDH (in words) (His-tagged SLDH [2]) | other results |
| --- | --- | --- | --- |
| NC(=O)c1ccc[n+]([C@@H]2O[C@H](COP(=O)([O-])OP(=O)(O)OC[C@H]3O[C@@H](n4cnc5c(N)ncnc54)[C@H](OP(=O)(O)O)[C@@H]3O)[C@@H](O)[C@H]2O)c1 [NADP^+] |  |  | Coenzyme specificity (in words) (His-tagged SLDH [1]; NAD^+ versus NADP^+ as coenzyme): higher specificity; Activity (His-tagged SLDH [1]; [4]): 4.2 U/mg protein; Activity (His-tagged SLDH [1]; [5]): 22.9 U/mg protein; Activity (His-tagged SLDH [1]; pH 9.0, glycine/NaOH buffer): 30.0 U/mg protein; Activity (His-tagged SLDH [1]; pH 10.1, glycine/NaOH buffer): 130.2 U/mg protein |
| OC[C@@H](O)[C@@H](O)[C@H](O)[C@@H](O)CO [sorbitol] | 130.2 U/mg protein |  | conversion efficiency (sorbitol to sorbose) (His-tagged SLDH [3]; 41.4 μg protein): 62%; sorbitol remaining (His-tagged SLDH [3]): 0.70 mg/mL |
| OC[C@@H](O)C(O)[C@H](O)CO [arabitol] | 88.1 U/mg protein | could utilize |  |
| OCC(O)CO [glycerol] | 0 U/mg protein | no action |  |
| NC(=O)c1ccc[n+]([C@@H]2O[C@H](COP(=O)([O-])OP(=O)(O)OC[C@H]3O[C@@H](n4cnc5c(N)ncnc54)[C@H](O)[C@@H]3O)[C@@H](O)[C@H]2O)c1 [NAD^+] |  |  | Activity (His-tagged SLDH [1]; [4]): 0.1 U/mg protein; Activity (His-tagged SLDH [1]; [5]): 1.2 U/mg protein; Activity (His-tagged SLDH [1]; pH 9.0, glycine/NaOH buffer): 3.4 U/mg protein; Activity (His-tagged SLDH [1]; pH 10.1, glycine/NaOH buffer): 8.1 U/mg protein |
| O[C@H]1[C@H](O)[C@@H](O)[C@H](O)[C@@H](O)[C@H]1O [inositol] | 0 U/mg protein | no action |  |
| O=C(CO)[C@H](O)[C@@H](O)[C@H](O)CO [sorbose] |  |  | sorbose generated (His-tagged SLDH [3]): 1.12 mg/mL |
| OC[C@@H](O)[C@@H](O)[C@@H](O)CO [ribitol] | 0 U/mg protein | no action |  |
| OC[C@@H](O)[C@H](O)[C@@H](O)CO [xylitol] | 0 U/mg protein | no action |  |
| OC[C@@H](O)[C@@H](O)[C@H](O)[C@H](O)CO [mannitol] | 85.7 U/mg protein | could utilize |  |
